Key:
MET [1] = target: T1, MET (Homo sapiens, UniProt P08581); assay: Test B: inhibition of the autophosphorylation of MET, ELISA technique (pppY1230, 1234, 1235) in MKN45 cells; type: cell-based; parameters: endogenous in cells; host or cells: MKN45 cells; settings: 1 h treatment, phosphoMET ELISA
Method: B) Test B: Inhibition of the Autophosphorylation of MET; ELISA Technique (pppY1230, 1234, 1235)
a) Cell lysates: Seed MKN45 cells into 96-well plates (Cell coat BD polylysine) at 20 000 cells/well in 200 μl in RPMI medium+10% FCS+1% L-glutamine. Leave to adhere for 24 hours in an incubator.
The cells are treated the day after seeding with the products at 6 concentrations in duplicate for 1 h. At least 3 control wells are treated with the same final amount of DMSO.
Product dilution: Stock at 10 mM in pure DMSO—range from 10 mM to 30 μM with an increment of 3 in pure DMSO—intermediate 1/50 dilutions in culture medium and then removal of 10 μl added directly to the cells (200 μl): final range from 10 000 to 30 nM.
At the end of the incubation, carefully remove the supernatant and rinse with 200 μl of PBS. Next, place 100 μl of lysis buffer directly in the wells on ice and incubate at 4° C. for 30 minutes. Lysis buffer: 10 mM Tris HCl, pH 7.4, 100 mM NaCl, 1 mM EDTA, 1 mM EGTA, 1% Triton X-100, 10% glycerol, 0.1% SDS, 0.5% deoxycholate, 20 mM NaF, 2 mM Na3VO4, 1 mM PMSF and cocktail of antiproteases.
The 100 μl of lysates are transferred into a V-bottomed polypropylene plate and the ELISA is performed immediately, or the plate is frozen at −80° C.
b) PhosphoMET ELISA BioSource Kit KH00281
Into each well of the kit plate, add 70 μl of kit dilution buffer+30 μl of cell lysate or 30 μl of lysis buffer for the blanks. Incubate for 2 h with gentle agitation at ambient temperature.
Rinse the wells 4 times with 400 μl of kit washing buffer. Incubate with 100 μl of anti-phospho MET antibody for 1 hour at ambient temperature.
Rinse the wells 4 times with 400 μl of kit washing buffer. Incubate with 100 μl of anti-rabbit HRP antibody for 30 minutes at ambient temperature (except for the wells of chromogen alone).
Rinse the wells 4 times with 400 μl of kit washing buffer. Introduce 100 μl of chromogen and incubate for 30 minutes in the dark at ambient temperature.
Stop the reaction with 100 μl of stop solution. Read without delay at […], 0.1 second on Wallac Victor plate reader.
Target sequence in this assay (P08581 25-1390): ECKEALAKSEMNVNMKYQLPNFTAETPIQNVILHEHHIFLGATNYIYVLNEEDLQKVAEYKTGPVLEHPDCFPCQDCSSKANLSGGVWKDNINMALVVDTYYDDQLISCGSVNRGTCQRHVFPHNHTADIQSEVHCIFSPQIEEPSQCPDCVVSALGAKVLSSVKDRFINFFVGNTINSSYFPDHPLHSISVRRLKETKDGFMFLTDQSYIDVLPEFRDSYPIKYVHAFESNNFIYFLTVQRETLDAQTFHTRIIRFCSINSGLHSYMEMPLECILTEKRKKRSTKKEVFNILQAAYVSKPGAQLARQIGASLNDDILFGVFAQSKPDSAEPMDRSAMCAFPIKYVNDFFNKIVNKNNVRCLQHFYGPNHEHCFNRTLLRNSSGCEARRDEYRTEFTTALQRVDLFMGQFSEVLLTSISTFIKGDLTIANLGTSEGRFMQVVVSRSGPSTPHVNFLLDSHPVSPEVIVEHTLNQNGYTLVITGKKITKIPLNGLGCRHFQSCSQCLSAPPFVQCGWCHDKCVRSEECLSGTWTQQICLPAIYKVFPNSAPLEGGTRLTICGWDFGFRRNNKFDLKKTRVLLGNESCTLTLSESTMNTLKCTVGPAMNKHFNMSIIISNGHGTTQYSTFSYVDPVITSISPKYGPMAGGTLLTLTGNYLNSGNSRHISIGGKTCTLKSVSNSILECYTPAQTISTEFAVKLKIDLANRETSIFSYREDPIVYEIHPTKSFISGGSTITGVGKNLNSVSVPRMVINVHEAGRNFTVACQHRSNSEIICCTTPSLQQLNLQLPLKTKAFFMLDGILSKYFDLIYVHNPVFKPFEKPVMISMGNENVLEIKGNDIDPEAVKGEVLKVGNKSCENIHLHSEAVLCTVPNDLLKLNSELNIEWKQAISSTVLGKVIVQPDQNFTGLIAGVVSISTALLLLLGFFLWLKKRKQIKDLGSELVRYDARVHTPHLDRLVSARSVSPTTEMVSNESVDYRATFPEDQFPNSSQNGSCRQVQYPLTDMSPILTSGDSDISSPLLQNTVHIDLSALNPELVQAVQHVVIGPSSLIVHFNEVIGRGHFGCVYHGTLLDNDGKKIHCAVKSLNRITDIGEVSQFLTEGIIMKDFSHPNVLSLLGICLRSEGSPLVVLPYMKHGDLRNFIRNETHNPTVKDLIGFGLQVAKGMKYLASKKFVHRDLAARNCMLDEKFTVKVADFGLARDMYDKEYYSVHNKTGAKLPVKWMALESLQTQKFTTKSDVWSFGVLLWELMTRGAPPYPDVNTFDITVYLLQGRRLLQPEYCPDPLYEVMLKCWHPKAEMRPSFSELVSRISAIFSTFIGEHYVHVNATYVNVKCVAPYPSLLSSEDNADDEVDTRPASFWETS

MET [2] = target: T1, MET; assay: Test A: HTRF MET assay in 96-well format; type: biochemical; parameters: The His-Tev-MET (956-1390) recombinant DNA in pFastBac (Invitrogen) is transfected into insect cells; His (N, cleaved yes); Tev cleavage site (N, cleaved yes); made in house; host or cells: SF21 insect cells (baculovirus, pFastBac); settings: 5 nM MET, 10 μM ATP
Method: I) Expression and Purification of MET, Cytoplasmic Domain
The His-Tev-MET (956-1390) recombinant DNA in pFastBac (Invitrogen) is transfected into insect cells and, after several viral amplification stages, the final baculovirus stock is tested for the expression of the protein of interest.
After infection for 72 h at 27° C. with the recombinant virus, the SF21 cell cultures are harvested by centrifugation and the cell pellets are stored at −80° C.
The cell pellets are resuspended in lysis buffer (buffer A [50 mM HEPES, pH 7.5, 250 mM NaCl, 10% glycerol, 1 mM TECP]; + cocktail of protease inhibitors, Roche Diagnostics, without EDTA, ref. 1873580), stirred at 4° C. until the mixture is homogeneous and then lysed mechanically using a “Dounce” type apparatus.
After centrifugation, the lysis supernatant is incubated for 2 h at 4° C. with nickel chelate resin (His-Trap 6 Fast Flow™, GE HealthCare). After washing with 20 volumes of buffer A, the suspension is packed into a column, and the proteins are eluted with a gradient of buffer B (buffer A+290 mM imidazole).
The fractions comprising the protein of interest for the purpose of electrophoretic analysis (SDS PAGE) are combined, concentrated by ultrafiltration (10 kDa cut-off) and injected onto an exclusion chromatography column (Superdex™ 200, GE HealthCare) equilibrated in buffer A.
After enzymatic cleavage of the histidine tag, the protein is reinjected onto a new IMAC nickel chelate chromatography column (His-Trap 6 Fast Flow™, GE HealthCare) equilibrated in buffer A. The fractions eluted with a gradient of buffer B and comprising the protein of interest after electrophoresis (SDS PAGE) are finally combined and conserved at −80° C.
For the production of autophosphorylated protein, the previous fractions are incubated for 1 h at ambient temperature after the addition of 2 mM ATP, 2 mM MgCl2, and 4 mM Na3VO4. After the reaction has been stopped with 5 mM of EDTA, the reaction mixture is injected onto a HiPrep desalifying column (GE HealthCare) preequilibrated in buffer A+4 mM Na3VO4, and the fractions comprising the protein of interest (SDS PAGE analysis) are combined and stored at −80° C. The degree of phosphorylation is verified by mass spectrometry (LC-MS) and by peptide mapping.
A) Test A: HTRF MET Assay in 96-Well Format
MET at a final concentration of 5 nM is incubated in a final volume of 50 μl of enzymatic reaction in the presence of the test molecule (for a final concentration range of from 0.17 nM to 10 μM, 3% DMSO final concentration) in 10 mM MOPS buffer, pH 7.4, 1 mM DTT, 0.01% Tween 20. The reaction is initiated with the substrate solution to obtain final concentrations of 1 μg/ml poly-(GAT), 10 μM ATP and 5 mM MgCl2. After incubation for 10 min at ambient temperature, the reaction is stopped with a 30 μl mix so as to obtain a final solution of 50 mM Hepes, pH 7.5, 500 mM potassium fluoride, 0.1% BSA and 133 mM EDTA in the presence of 80 ng of streptavidin 61SAXLB Cis-Bio Int. and 18 ng of anti-phosphotyrosine Mab PT66-Europium Cryptate per well. After incubation for 2 hours at ambient temperature, the reading is taken at 2 wavelengths, 620 nm and 665 nm, on a reader for the TRACE/HTRF technique and the % inhibition is calculated from the 665/620 ratios.
Target sequence in this assay (P08581 956-1390): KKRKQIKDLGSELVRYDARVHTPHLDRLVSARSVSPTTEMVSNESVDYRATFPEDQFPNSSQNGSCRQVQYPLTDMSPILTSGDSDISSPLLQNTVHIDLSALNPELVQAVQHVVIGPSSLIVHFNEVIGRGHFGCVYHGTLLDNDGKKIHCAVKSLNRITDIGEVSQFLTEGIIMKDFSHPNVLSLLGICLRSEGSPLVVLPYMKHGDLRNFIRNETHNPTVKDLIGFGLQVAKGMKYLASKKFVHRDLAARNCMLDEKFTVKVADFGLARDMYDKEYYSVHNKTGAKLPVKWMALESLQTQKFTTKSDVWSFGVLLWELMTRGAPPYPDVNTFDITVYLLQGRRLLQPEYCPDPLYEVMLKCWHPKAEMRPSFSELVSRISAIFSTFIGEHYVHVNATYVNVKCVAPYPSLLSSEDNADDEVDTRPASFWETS

[3] = tested on: HCT116 cells and MKN45 cells; assay: Test C: measurement of cell proliferation by 14C-thymidine pulse; type: cell-based; settings: 14C-thymidine incorporation, 96 h of treatment; cell line not stated (HCT116 and MKN45 in method)
Method: C) Test C: Measurement of cell proliferation by ^14C-thymidine pulse
The cells are seeded into Cytostar 96-well plates in 180 μl for 4 hours at 37° C. and 5% CO2: HCT116 cells at a rate of 2500 cells per well in DMEM medium+10% foetal calf serum+1% L-glutamine and MKN45 cells at a rate of 7500 cells per well in RPMI medium+10% foetal calf serum+1% L-glutamine. After these 4 hours of incubation, the products are added in 10 μl as a 20-fold concentrated solution according to the dilution method mentioned for the ELISA. The products are tested at 10 concentrations in duplicate from 10 000 nM to 0.3 nM with an increment of 3.
After treatment for 72 h, add 10 μl of ^14C-thymidine at 10 μCi/ml to obtain 0.1 μCi per well. The ^14C-thymidine incorporation is measured on a Micro-Beta machine (Perkin-Elmer) after 24 hours of pulse and 96 h of treatment.
All the stages of the assay are automated on BIOMEK 2000 or TECAN stations.

SMILES: O=C(NCCN1CCCC1)Nc1nc2ccc(Sc3cnc4ncccn34)cc2s1 [Example 5, 1-[6-(imidazo[1,2-a]pyrimidin-3-ylsulphanyl)-1,3-benzothiazol-2-yl]-3-[2-(pyrrolidin-1-yl)ethyl]urea]
- IC50 (MET [1]): < 0.1 µM
- melting point: > 260 °C
- IC50 (MET [2]): < 0.1 µM
- IC50 [3]: < 1 µM

Reference: patent US20110263593A1, “NOVEL IMIDAZO[1,2-a]PYRIMIDINE DERIVATIVES, METHOD FOR THE PREPARATION THEREOF, USE THEREOF AS MEDICAMENTS, PHARMACEUTICAL COMPOSITIONS AND NOVEL USE, IN PARTICULAR AS MET INHIBITORS” (sanofi-aventis, priority 2008, published 2011)
